Data: BindingDB's records for doi:10.1021/acsmedchemlett.0c00369 (Shenyang Pharmaceutical University, 2021)

Biological target: Histone deacetylase 2 (Homo sapiens, UniProt Q92769)
Assay: Inhibition of recombinant full length C-terminal FLAG-tagged human HDAC2 expressed in baculovirus infected Sf9 cells using Boc-Lys(Ac)-AMC as substrate preincubated for 15 mins followed by substrate addition and measured after 60 mins by fluorescence based assay

Histone deacetylase 2, sequence (Q92769 whole entry): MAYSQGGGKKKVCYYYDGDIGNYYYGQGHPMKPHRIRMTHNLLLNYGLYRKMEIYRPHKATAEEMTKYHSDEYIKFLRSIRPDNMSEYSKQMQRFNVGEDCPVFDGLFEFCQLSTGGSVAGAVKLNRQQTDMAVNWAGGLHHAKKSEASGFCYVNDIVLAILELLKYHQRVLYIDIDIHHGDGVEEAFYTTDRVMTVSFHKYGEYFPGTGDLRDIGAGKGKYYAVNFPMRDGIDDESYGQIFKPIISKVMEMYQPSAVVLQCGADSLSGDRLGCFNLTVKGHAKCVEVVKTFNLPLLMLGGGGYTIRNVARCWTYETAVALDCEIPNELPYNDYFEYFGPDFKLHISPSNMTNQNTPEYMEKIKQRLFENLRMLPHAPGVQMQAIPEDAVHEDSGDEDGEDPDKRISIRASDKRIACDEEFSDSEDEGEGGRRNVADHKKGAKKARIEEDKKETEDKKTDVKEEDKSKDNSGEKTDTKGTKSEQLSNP

`O=NC(Cc1ccc(O)c(Br)c1)C(=O)NCCSSCCNC(=O)C(Cc1ccc(O)c(Br)c1)N=O` (stereo unspecified) [3-(3-bromo-4-hydroxy-phenyl)-N-[2-(2-{3-(3-bromo-4-hydroxy-phenyl)-2-[hydroxyimino]-propionylamino}-ethyldisulfanyl)-ethyl]-2-[hydroxyimino]-propionamide] showed an IC50 of 33 nM.
